Data on 30 compounds can be found in patent US20070219186A1, “Pyrazolo[1,5-A]pyrimidine derivatives and methods of use thereof” (priority 2006, published 2007).

This test deals with T1, human B-Raf (Homo sapiens, UniProt P15056).
T1 construct: Flag; GST; made in house; host or cells: Sf9 insect cells (B-Raf); E. coli (MEK1-GST)
Put plainly: B-Raf Kinase to MEK1 ELISA. It is filed as biochemical. As to conditions: for inhibition at 10 µM: read-out: % Inhib./10 uM. The gist of the method:
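Flag/GST-tagged human B-Raf (Sf9, ~20 ng/point) phosphorylates non-active GST-MEK1 (50 nM final) with ATP and MgCl2 in MOPS pH 7.2 buffer, 60 min at RT. Product is captured on anti-GST plates; MEK1 pSer217/221 is read by phospho-antibody plus europium conjugate (DELFIA).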

Where [1] appears, read: median, cpd concentrations from 10 μM to 30 nM in half log dilutions, read-out: Median IC50.

Where two headings read alike, the source gives them in different places. Where only a bound is given, the exact number is not on record here.

T1 sequence (P15056 whole entry): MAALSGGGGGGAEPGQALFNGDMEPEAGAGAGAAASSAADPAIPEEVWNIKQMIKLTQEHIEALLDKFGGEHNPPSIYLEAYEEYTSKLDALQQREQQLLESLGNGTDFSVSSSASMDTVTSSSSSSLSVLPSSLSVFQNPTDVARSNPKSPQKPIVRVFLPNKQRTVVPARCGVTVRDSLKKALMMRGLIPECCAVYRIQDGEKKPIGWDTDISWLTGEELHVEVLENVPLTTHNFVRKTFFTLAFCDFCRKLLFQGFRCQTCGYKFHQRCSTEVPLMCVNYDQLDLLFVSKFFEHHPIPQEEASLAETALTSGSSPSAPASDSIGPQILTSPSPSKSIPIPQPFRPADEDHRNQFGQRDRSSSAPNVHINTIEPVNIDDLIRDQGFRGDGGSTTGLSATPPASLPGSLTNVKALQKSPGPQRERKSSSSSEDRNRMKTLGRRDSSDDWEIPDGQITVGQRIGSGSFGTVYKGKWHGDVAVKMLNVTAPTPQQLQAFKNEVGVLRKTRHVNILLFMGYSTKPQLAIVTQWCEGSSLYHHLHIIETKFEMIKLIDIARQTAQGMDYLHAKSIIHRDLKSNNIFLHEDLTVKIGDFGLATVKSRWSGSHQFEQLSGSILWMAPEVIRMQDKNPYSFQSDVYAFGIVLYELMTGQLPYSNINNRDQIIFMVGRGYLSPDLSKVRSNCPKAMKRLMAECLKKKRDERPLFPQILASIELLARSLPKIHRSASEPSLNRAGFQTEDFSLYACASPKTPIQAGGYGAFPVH

As to `O=C(Nc1cccc(-c2ccnc3cc(-c4ccncc4)nn23)c1)c1ccc(Cl)c(C(F)(F)F)c1` [Example 129, 4-chloro-N-[3-(2-pyridin-4-ylpyrazolo[1,5-a]pyrimidin-7-yl)phenyl]-3-(trifluoromethyl)benzamide], 50 nM corresponded to half-maximal inhibition (IC50) and the inhibition at 10 µM was 86%.
On to `COc1ccc(C(=O)Nc2cccc(-c3ccnc4cc(-c5ccncc5)nn34)c2)cc1C(F)(F)F` [Example 130, 4-methoxy-N-[3-(2-pyridin-4-ylpyrazolo[1,5-a]pyrimidin-7-yl)phenyl]-3-(trifluoromethyl)benzamide], for which the inhibition at 10 µM stood at 91%. Further, the half-inhibitory concentration (IC50) under setting [1] was found to be 70 nM.
Taken in the same sequence, the figures for `O=C(Nc1cccc(-c2ccnc3cc(-c4ccncc4)nn23)c1)Nc1ccc(F)c(C(F)(F)F)c1` [Example 131, N-[4-fluoro-3-(trifluoromethyl)phenyl]-N′-[3-(2-pyridin-4-ylpyrazolo[1,5-a]pyrimidin-7-yl)phenyl]urea] were 98% and 30 nM.
With `O=C(Nc1cccc(-c2ccnc3cc(-c4ccncc4)nn23)c1)Nc1ccc(Cl)c(C(F)(F)F)c1` [Example 133, N-[4-chloro-3-(trifluoromethyl)phenyl]-N′-[3-(2-pyridin-4-ylpyrazolo[1,5-a]pyrimidin-7-yl)phenyl]urea], under setting [1], the IC50 was 30 nM. In addition, the “% Inhib./10 uM” value (single point assay, 10 uM) was found to be 98%.
Take `Cc1ccc(C(=O)Nc2cccc(-c3ccnc4cc(-c5ccncc5)nn34)c2)cc1C(F)(F)F` [Example 134, 4-methyl-N-[3-(2-pyridin-4-ylpyrazolo[1,5-a]pyrimidin-7-yl)phenyl]-3-(trifluoromethyl)benzamide]: the inhibition at 10 µM was 96%. Moreover, the IC50 under setting [1] is 40 nM.
Taken in the same sequence, the figures for `O=C(Nc1cccc(-c2ccnc3cc(-c4ccc(CO)cc4)nn23)c1)c1cccc(C(F)(F)F)c1` [Example 135, N-(3-{2-[4-(hydroxymethyl)phenyl]pyrazolo[1,5-a]pyrimidin-7-yl}phenyl)-3-(trifluoromethyl)benzamide] were 32% and more than 10000 nM.
In the case of `COc1ccc(-c2cc3nccc(-c4cccc(NC(=O)c5cccc(C(F)(F)F)c5)c4)n3n2)cc1` [Example 136, N-{3-[2-(4-methoxyphenyl)pyrazolo[1,5-a]pyrimidin-7-yl]phenyl}-3-(trifluoromethyl)benzamide], the concentration for half-maximal inhibition (IC50) is more than 10000 nM and the inhibition at 10 µM came out at 35%.
With `O=C(Nc1cccc(-c2ccnc3cc(-c4cccc(C(F)(F)F)c4)nn23)c1)c1cccc(C(F)(F)F)c1` [Example 137, 3-(trifluoromethyl)-N-(3-{2-[3-(trifluoromethyl)phenyl]pyrazolo[1,5-a]pyrimidin-7-yl}phenyl)benzamide], the IC50 under setting [1] was more than 10000 nM.
With `CC(C)(C)c1cc2nccc(-c3cccc(NC(=O)c4cccc(C(F)(F)F)c4)c3)n2n1` [Example 138, N-[3-(2-tert-butylpyrazolo[1,5-a]pyrimidin-7-yl)phenyl]-3-(trifluoromethyl)benzamide], the inhibition at 10 µM is 46%. The IC50 under setting [1] is more than 10000 nM.
`O=C(Nc1cccc(-c2ccnc3cc(-c4ccc(F)cc4)nn23)c1)c1cccc(C(F)(F)F)c1` [Example 139, N-{3-[2-(4-fluorophenyl)pyrazolo[1,5-a]pyrimidin-7-yl]phenyl}-3-(trifluoromethyl)benzamide]: the inhibition at 10 µM was 35%. In addition, the IC50 under setting [1] was more than 10000 nM.
Taken in the same sequence, the figures for `CCOCOCc1ccc(-c2cc3nccc(-c4cccc(NC(=O)c5cccc(C(F)(F)F)c5)c4)n3n2)cc1` [Example 140, N-[3-(2-{4-[(ethoxymethoxy)methyl]phenyl}pyrazolo[1,5-a]pyrimidin-7-yl)phenyl]-3-(trifluoromethyl)benzamide] were 39% and more than 10000 nM.
For `COC(=O)c1cccc(-c2cc3nccc(-c4cccc(NC(=O)c5cccc(C(F)(F)F)c5)c4)n3n2)c1` [Example 141, methyl 3-[7-(3-{[3-(trifluoromethyl)benzoyl]amino}phenyl)pyrazolo[1,5-a]pyrimidin-2-yl]benzoate], in that order: 32% and more than 10000 nM.
For `O=C(Nc1cccc(-c2ccnc3c(Br)cnn23)c1)Nc1ccc(Cl)c(C(F)(F)F)c1` [Example 143, N-[3-(3-bromopyrazolo[1,5-a]pyrimidin-7-yl)phenyl]-N′-[4-chloro-3-(trifluoromethyl)phenyl]urea], in that order: 92% and 140 nM.
As to `O=C(Nc1cccc(-c2ccnc3cc(-c4ccncc4)nn23)c1)c1ccccc1` [Example 144, N-[3-(2-pyridin-4-ylpyrazolo[1,5-a]pyrimidin-7-yl)phenyl]benzamide], the inhibition at 10 µM came out at 15%. Moreover, the IC50 under setting [1] was more than 10000 nM.
For `O=C(Nc1cccc(-c2ccnc3cc(-c4ccncc4)nn23)c1)c1ccccc1Cl` [Example 145, 2-chloro-N-[3-(2-pyridin-4-ylpyrazolo[1,5-a]pyrimidin-7-yl)phenyl]benzamide], in that order: 24% and more than 10000 nM.
For `COc1cccc(C(=O)Nc2cccc(-c3ccnc4cc(-c5ccncc5)nn34)c2)c1` [Example 146, 3-methoxy-N-[3-(2-pyridin-4-ylpyrazolo[1,5-a]pyrimidin-7-yl)phenyl]benzamide], the IC50 was found to be 4000 nM.
With `Cc1cccc(C(=O)Nc2cccc(-c3ccnc4cc(-c5ccncc5)nn34)c2)c1` [Example 147, 3-methyl-N-[3-(2-pyridin-4-ylpyrazolo[1,5-a]pyrimidin-7-yl)phenyl]benzamide], the inhibition at 10 µM came out at 66%. The IC50 under setting [1] was 1400 nM.
As for `Cc1ccc(C(=O)Nc2cccc(-c3ccnc4cc(-c5ccncc5)nn34)c2)cc1` [Example 148, 4-methyl-N-[3-(2-pyridin-4-ylpyrazolo[1,5-a]pyrimidin-7-yl)phenyl]benzamide], the inhibition at 10 µM was determined as 20%. Besides, the IC50 under setting [1] is more than 10000 nM.
On to `O=C(Nc1cccc(-c2ccnc3cc(-c4ccncc4)nn23)c1)c1ccc(Cl)c(Cl)c1` [Example 149, 3,4-dichloro-N-[3-(2-pyridin-4-ylpyrazolo[1,5-a]pyrimidin-7-yl)phenyl]benzamide], for which the half-maximal inhibitory concentration (IC50) was 1250 nM and the inhibition at 10 µM was 72%.
Regarding `O=C(Nc1cccc(-c2ccnc3cc(-c4ccncc4)nn23)c1)c1cccc(Cl)c1` [Example 150, 3-chloro-N-[3-(2-pyridin-4-ylpyrazolo[1,5-a]pyrimidin-7-yl)phenyl]benzamide], the IC50 was determined as 1100 nM.
`O=C(Nc1cccc(-c2ccnc3cc(-c4ccncc4)nn23)c1)c1ccc(Cl)cc1` [Example 151, 4-chloro-N-[3-(2-pyridin-4-ylpyrazolo[1,5-a]pyrimidin-7-yl)phenyl]benzamide]: the inhibition at 10 µM came out at 33%. In addition, the IC50 under setting [1] was more than 10000 nM.
Consider `O=C(Nc1cccc(-c2ccnc3cc(-c4cccnc4)nn23)c1)c1cccc(C(F)(F)F)c1` [Example 152, N-[3-(2-pyridin-3-ylpyrazolo[1,5-a]pyrimidin-7-yl)phenyl]-3-(trifluoromethyl)benzamide], for which the IC50 under setting [1] is more than 10000 nM.
As for `O=C(Nc1cccc(-c2ccnc3ccnn23)c1)c1cccc(C(F)(F)F)c1` [Example 153, N-(3-pyrazolo[1,5-a]pyrimidin-7-ylphenyl)-3-(trifluoromethyl)benzamide], the inhibition at 10 µM was determined as 31%. For the same compound, the IC50 under setting [1] is more than 10000 nM.
For `O=C(Nc1cccc(-c2ccnc3c(-c4cccnc4)cnn23)c1)c1cccc(C(F)(F)F)c1` [Example 155, N-[3-(3-pyridin-3-ylpyrazolo[1,5-a]pyrimidin-7-yl)phenyl]-3-(trifluoromethyl)benzamide], inhibition was half-maximal at 95 nM (IC50) and the inhibition at 10 µM was 103%.
With `Nc1cccc(-c2cnn3c(-c4cccc(NC(=O)c5cccc(C(F)(F)F)c5)c4)ccnc23)c1` [Example 156, N-{3-[3-(3-aminophenyl)pyrazolo[1,5-a]pyrimidin-7-yl]phenyl}-3-(trifluoromethyl)benzamide], 100 nM corresponded to half-maximal inhibition (IC50) and the inhibition at 10 µM was found to be 86%.
For `CN(C)c1ccc(-c2cnn3c(-c4cccc(NC(=O)c5cccc(C(F)(F)F)c5)c4)ccnc23)cc1` [Example 157, N-(3-{3-[4-(dimethylamino)phenyl]pyrazolo[1,5-a]pyrimidin-7-yl}phenyl)-3-(trifluoromethyl)benzamide], in that order: 300 nM and 66%.
For `O=C(Nc1cccc(-c2ccnc3c(-c4ccc(Cl)cc4)cnn23)c1)c1cccc(C(F)(F)F)c1` [Example 158, N-{3-[3-(4-chlorophenyl)pyrazolo[1,5-a]pyrimidin-7-yl]phenyl}-3-(trifluoromethyl)benzamide], the inhibition at 10 µM was 39%. Besides, under setting [1], the IC50 was more than 10000 nM.
For `Cc1ccc(-c2cnn3c(-c4cccc(NC(=O)c5cccc(C(F)(F)F)c5)c4)ccnc23)cc1` [Example 160, N-{3-[3-(4-methylphenyl)pyrazolo[1,5-a]pyrimidin-7-yl]phenyl}-3-(trifluoromethyl)benzamide], the inhibition at 10 µM worked out at 51%.
Take `Cc1ccc(C(=O)Nc2cccc(-c3ccnc4c(Br)cnn34)c2)cc1C(F)(F)F` [Example 161, N-[3-(3-bromopyrazolo[1,5-a]pyrimidin-7-yl)phenyl]-4-methyl-3-(trifluoromethyl)benzamide]: half-maximal inhibition (IC50) required 670 nM and the inhibition at 10 µM turned out to be 87%.
Taken in the same sequence, the figures for `COc1ccc(C(=O)Nc2cccc(-c3ccnc4c(Br)cnn34)c2)cc1C(F)(F)F` [Example 162, N-[3-(3-bromopyrazolo[1,5-a]pyrimidin-7-yl)phenyl]-4-methoxy-3-(trifluoromethyl)benzamide] were 2100 nM and 75%.
